Experiments:
mouse [1] = conditions: Subchronic oral toxicity in rodents, b6c3f1, Gavage/Intubation, dose end: 6 month, group: systemic
mouse [2] = conditions: Combined chronic toxicity/carcinogenicity, b6c3f1, Oral, Gavage/Intubation, dose end: 2 year, group: systemic
rat [3] = conditions: Subchronic oral toxicity in rodents, wistar, Water, dose end: 90 day
mouse [4] = conditions: Multigenerational reproductive toxicity study, other, Oral, Gavage/Intubation, dose end: 21 PND
rat [5] = conditions: Subchronic oral toxicity in rodents, fischer, Gavage/Intubation, dose end: 6 month, group: systemic
rat [6] = conditions: Fertility (Segment I), sprague dawley, Oral, Gavage/Intubation, dose end: 0 mating
rat [7] = conditions: Combined chronic toxicity/carcinogenicity; fischer; Oral; Gavage/Intubation; dose end: 2 year; group: systemic; systemic / in life observation / body weight / body weight + systemic / pathology microscopic / kidney / nephropathy + systemic / pathology …
rat [8] = conditions: Multigenerational reproductive toxicity study, sprague dawley, Oral, Gavage/Intubation, dose end: 2 generation
[9] = systemic / pathology microscopic / kidney / vacuolization cytoplasmic + systemic / in life observation / body weight / body weight + …
[10] = systemic / pathology microscopic / kidney / nephropathy + systemic / pathology microscopic / kidney / vacuolization cytoplasmic
[11] = systemic / pathology microscopic / kidney / nephropathy + systemic / pathology microscopic / kidney / vacuolization cytoplasmic + systemic…
[12] = group: maternal, reproductive / reproductive performance / fertility / fertility + reproductive / reproductive performance / mating / mating
[13] = group: systemic, systemic / organ weight / epididymis / absolute + systemic / organ weight / prostate / absolute + systemic / organ weight / seminal vesicle…
[14] = group: systemic, systemic / pathology gross / sperm measure / sperm count + systemic / pathology gross / sperm measure / sperm motility
[15] = group: offspring, developmental / offspring survival late / viability index / viability index
[16] = group: parental, systemic / organ weight / kidney / relative to body weight
[17] = group: parental, systemic / organ weight / kidney / relative to body weight + systemic / in life observation / body weight / body weight
[18] = group: reproductive, reproductive / reproductive performance / fertility / fertility
[19] = group: reproductive, reproductive / reproductive performance / fertility / fertility + reproductive / offspring survival early / live fetuses / live fetuses
[20] = systemic / in life observation / body weight / body weight + systemic / clinical chemistry / alanine aminotransferase (alt/sgpt) / alanine …
[21] = group: maternal, reproductive / reproductive performance / implantations / implantations
[22] = group: parental, systemic / clinical chemistry / luteinizing hormone (lh) / luteinizing hormone (lh) + systemic / clinical chemistry / progesterone / …
[23] = group: parental, systemic / in life observation / body weight / body weight gain
[24] = group: offspring, developmental / offspring survival late / viability index / viability index + systemic / in life observation / body weight / offspring (pup…
[25] = group: offspring, systemic / in life observation / body weight / offspring (pup) weight + systemic / organ weight / liver / absolute + systemic / organ weight…
[26] = group: parental, systemic / in life observation / body weight / body weight + systemic / in life observation / mortality / mortality + systemic / organ …
[27] = group: parental, systemic / in life observation / mortality / mortality + systemic / organ weight / kidney / absolute + systemic / organ weight / kidney / …
[28] = group: reproductive, reproductive / reproductive performance / fertility / fertility + reproductive / offspring survival early / litter size / litter size + …
[29] = group: reproductive, reproductive / reproductive performance / fertility / fertility + reproductive / reproductive performance / implantations / implantations + …

[Cl][Hg][Cl] [Mercuric chloride]
LOAEL (mouse [1]; systemic / pathology microscopic / kidney / vacuolization cytoplasmic): 10 mg/kg/day | NEL (mouse [1]; [9]): 2.5 mg/kg/day | NOAEL (mouse [1]; [9]): 5 mg/kg/day | LEL (mouse [1]; systemic / pathology microscopic / kidney / vacuolization cytoplasmic + systemic / organ weight / kidney / absolute): 5 mg/kg/day | LOAEL (mouse [2]; [10]): 5 mg/kg/day | NOAEL (mouse [2]; [10]): < 5 mg/kg/day | LEL (mouse [2]; [11]): 5 mg/kg/day | NEL (mouse [2]; [11]): < 5 mg/kg/day | LEL (rat [3]; [12]): 5 mg/kg/day | LOAEL (rat [3]; [12]): > 5 mg/kg/day | NEL (rat [3]; [12]): 2.5 mg/kg/day | NOAEL (rat [3]; [12]): ≥ 5 mg/kg/day | LOAEL (rat [3]; [13]): > 5 mg/kg/day | NOAEL (rat [3]; [13]): ≥ 5 mg/kg/day | LEL (rat [3]; [14]): 2.5 mg/kg/day | NEL (rat [3]; [14]): < 2.5 mg/kg/day | LEL (mouse [4]; [15]): 1 mg/kg/day | LOAEL (mouse [4]; [15]): > 1 mg/kg/day | NEL (mouse [4]; [15]): 0.5 mg/kg/day | NOAEL (mouse [4]; [15]): ≥ 1 mg/kg/day | LEL (mouse [4]; [16]): 0.25 mg/kg/day | NEL (mouse [4]; [16]): < 0.25 mg/kg/day | LOAEL (mouse [4]; [17]): > 1 mg/kg/day | NOAEL (mouse [4]; [17]): ≥ 1 mg/kg/day | LEL (mouse [4]; [18]): 0.25 mg/kg/day | NEL (mouse [4]; [18]): < 0.25 mg/kg/day | LOAEL (mouse [4]; [19]): > 1 mg/kg/day | NOAEL (mouse [4]; [19]): ≥ 1 mg/kg/day | LEL (rat [5]; [20]): 0.312 mg/kg/day | NEL (rat [5]; [20]): < 0.312 mg/kg/day | NOAEL (rat [5]; systemic / in life observation / body weight / body weight + systemic / pathology microscopic / kidney / nephropathy + systemic / organ …): 2.5 mg/kg/day | LOAEL (rat [5]; systemic / pathology microscopic / kidney / nephropathy): 5 mg/kg/day | LEL (rat [6]; [21]): 2 mg/kg/day | LOAEL (rat [6]; [21]): > 2 mg/kg/day | NEL (rat [6]; [21]): 1 mg/kg/day | NOAEL (rat [6]; [21]): ≥ 2 mg/kg/day | LOAEL (rat [6]; [22]): > 2 mg/kg/day | NOAEL (rat [6]; [22]): ≥ 2 mg/kg/day | LEL (rat [6]; [23]): 1 mg/kg/day | NEL (rat [6]; [23]): < 1 mg/kg/day | LEL (rat [7]): 2.5 mg/kg/day | LOAEL (rat [7]): 2.5 mg/kg/day | NEL (rat [7]): < 2.5 mg/kg/day | NOAEL (rat [7]): < 2.5 mg/kg/day | LOAEL (rat [8]; [24]): > 2.5 mg/kg/day | NOAEL (rat [8]; [24]): ≥ 2.5 mg/kg/day | LEL (rat [8]; [25]): 0.5 mg/kg/day | NEL (rat [8]; [25]): < 0.5 mg/kg/day | LOAEL (rat [8]; [26]): > 2.5 mg/kg/day | NOAEL (rat [8]; [26]): ≥ 2.5 mg/kg/day | LEL (rat [8]; [27]): 0.5 mg/kg/day | NEL (rat [8]; [27]): < 0.5 mg/kg/day | LEL (rat [8]; [28]): 0.5 mg/kg/day | NEL (rat [8]; [28]): < 0.5 mg/kg/day | LOAEL (rat [8]; [29]): > 2.5 mg/kg/day | NOAEL (rat [8]; [29]): ≥ 2.5 mg/kg/day

Reference: EPA's ToxRefDB 2
